Where two headings read alike, the source gives them in different places.
How the values were obtained:
CYP450 2C9 = target: T1, CYP450 2C9 (Homo sapiens, UniProt P11712); test: Inhibition of human liver microsome CYP450 enzyme 2C9; type: in vitro ADME
T1 construct: from tissue; host or cells: human liver microsomes
Procedure: (§1) 100 mM K-Buffer: 9.5 mL of stock solution A was mixed with 40.5 mL of stock solution B, the total volume was adjusted to 500 mL with ultrapure water, and the buffer was titrated to pH 7.4 with KOH or H3PO4. • Starting material A (1 M potassium dihydrogen phosphate): 136.5 g of potassium dihydrogen phosphate in 1 L of water; • Stock solution B ([…]): 174.2 g of potassium dihydrogen phosphate in 1 L of water.
(§2) The test substance powder was prepared into a stock solution at a certain concentration with DMSO or another organic solvent, which was then further diluted with a suitable organic solvent.
(§3) The liver microsomal in vitro incubation system for the CYP450 enzyme metabolism phenotype study was a biochemical reaction of the prepared liver microsomes supplemented with a redox coenzyme and an enzyme-specific selective inhibitor under simulated physiological temperature and physiological environment conditions.
(§4) The concentration of the parent drug or a metabolite thereof in the incubation solution was determined by LC-MS/MS. and the IC50 value was calculated.

CYP450 2D6 = target: T2, CYP450 2D6 (Homo sapiens, UniProt P10635); test: Inhibition of human liver microsome CYP450 enzyme 2D6; type: in vitro ADME
T2 construct: from tissue; host or cells: human liver microsomes
T2 sequence (P10635 whole entry): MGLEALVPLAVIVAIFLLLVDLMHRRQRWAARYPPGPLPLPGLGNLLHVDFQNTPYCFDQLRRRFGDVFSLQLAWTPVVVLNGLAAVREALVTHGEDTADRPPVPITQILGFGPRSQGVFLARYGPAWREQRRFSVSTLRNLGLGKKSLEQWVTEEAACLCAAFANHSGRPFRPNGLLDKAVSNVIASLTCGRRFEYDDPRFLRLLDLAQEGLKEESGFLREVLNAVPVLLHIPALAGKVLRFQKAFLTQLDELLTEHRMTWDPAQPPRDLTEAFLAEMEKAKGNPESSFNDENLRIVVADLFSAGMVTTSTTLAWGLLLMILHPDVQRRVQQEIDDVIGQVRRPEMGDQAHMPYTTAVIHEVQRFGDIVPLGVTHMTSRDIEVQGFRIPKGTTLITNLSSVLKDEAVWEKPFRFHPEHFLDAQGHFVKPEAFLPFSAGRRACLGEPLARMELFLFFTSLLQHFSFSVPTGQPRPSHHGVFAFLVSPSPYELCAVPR
Procedure: as §1, §2, §3, §4

NCI-H838 cells = test: Pharmacodynamic study, NCI-H838 subcutaneous xenograft; type: in vivo, mouse
Procedure: Human non-small cell lung cancer NCI-H838 cells were cultured in monolayer in vitro using the McCoy 5A culture medium (HyClone) containing 10% fetal bovine serum (BI) and 1% penicillin and streptomycin (Beyotime) in an incubator at 37 °C with 5% CO2. The cells were digested with trypsin 2 to 3 times weekly for passaging. When the saturation degree of the cells was 80% to 90%, the cells were collected, counted, and inoculated. 5 × 10^6 (0.1 mL) NCI-H838 cells were subcutaneously inoculated on the right back of each mouse. On about day 29 after inoculation of the cells, the mean tumor volume reached 156 mm^3. The mice were randomly grouped for administration (the animals were divided into an administration group and a control group, with 6 animals in each group). The day of grouping was designated as d0, and intragastric administration was started on d1. The administration was performed once daily at an administration volume of 10 mL/kg. Vehicle control was administered to the control group. The tumor volume was measured 2 to 3 times weekly, and meanwhile, the mice were weighed and the data were recorded; daily observations were made to record the body surface signs of the mice. After the experiment was completed, the tumors were collected, weighed, and photographed for recording.
Calculation formula for tumor volume: Tumor volume (mm^3) = 1/2 × (a×b^2) [formula] (note: a represents long diameter and b represents short diameter) [formula]

[1] = target: T3, hERG Potassium Ion Channel (Homo sapiens, UniProt Q12809); test: Effect on hERG potassium ion channel (whole-cell patch clamp, HEK293 cells); type: cell-based; conditions: human, whole-cell patch clamp (Qpatch), room temperature
T3 construct: expressed in transfected cells; host or cells: HEK293
T3 sequence (Q12809 whole entry): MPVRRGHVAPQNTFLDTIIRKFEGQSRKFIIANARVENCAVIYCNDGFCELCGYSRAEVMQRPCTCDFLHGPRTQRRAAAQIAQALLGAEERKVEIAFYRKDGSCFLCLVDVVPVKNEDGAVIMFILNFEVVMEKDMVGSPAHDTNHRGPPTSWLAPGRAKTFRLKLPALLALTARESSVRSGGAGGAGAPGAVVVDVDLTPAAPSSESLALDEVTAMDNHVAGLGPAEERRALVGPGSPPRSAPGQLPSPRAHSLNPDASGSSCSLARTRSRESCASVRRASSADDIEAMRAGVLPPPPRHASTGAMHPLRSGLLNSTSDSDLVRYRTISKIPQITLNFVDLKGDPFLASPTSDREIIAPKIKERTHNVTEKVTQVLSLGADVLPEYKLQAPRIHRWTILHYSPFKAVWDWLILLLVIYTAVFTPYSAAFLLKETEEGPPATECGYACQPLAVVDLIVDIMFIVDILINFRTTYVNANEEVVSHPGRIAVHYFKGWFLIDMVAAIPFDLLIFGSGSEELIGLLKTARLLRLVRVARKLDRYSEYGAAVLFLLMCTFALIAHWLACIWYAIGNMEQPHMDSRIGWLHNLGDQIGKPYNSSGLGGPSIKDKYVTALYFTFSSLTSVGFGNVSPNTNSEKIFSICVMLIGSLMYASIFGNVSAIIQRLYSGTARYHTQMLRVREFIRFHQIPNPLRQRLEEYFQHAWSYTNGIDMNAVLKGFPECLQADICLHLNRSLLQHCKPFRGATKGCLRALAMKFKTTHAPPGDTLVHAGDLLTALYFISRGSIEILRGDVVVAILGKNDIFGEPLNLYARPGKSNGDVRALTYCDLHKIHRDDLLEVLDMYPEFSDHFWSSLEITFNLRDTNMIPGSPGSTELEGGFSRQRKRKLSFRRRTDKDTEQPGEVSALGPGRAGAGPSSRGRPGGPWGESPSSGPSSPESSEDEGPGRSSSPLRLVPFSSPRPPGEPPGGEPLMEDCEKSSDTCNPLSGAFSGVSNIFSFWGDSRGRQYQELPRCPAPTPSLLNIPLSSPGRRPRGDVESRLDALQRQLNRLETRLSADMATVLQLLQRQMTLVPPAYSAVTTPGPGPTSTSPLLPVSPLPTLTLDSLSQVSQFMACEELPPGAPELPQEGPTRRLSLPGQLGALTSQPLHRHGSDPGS
Procedure: HEK293 cells were cultured in a DMEM medium containing 10% fetal bovine serum and 0.8 mg/mL G418 at 37 °C with 5% CO2. The cells were digested by TrypLE™ Express and then centrifuged. The cell density was adjusted to 2 × 10^6 cells/mL. The cells were then gently mixed for 15 to 20 min using a shaker equilibrated at room temperature, and subjected to a patch clamp assay on a machine. The culture medium of the prepared cells was replaced with extracellular fluid. The intracellular fluid and the extracellular fluid were taken from the fluid pool and added to the intracellular fluid pool and the cell and test substance pool of the QPlate chip, respectively. The voltage stimulation of the whole-cell hERG potassium current was recorded by the whole-cell patch clamp, and the experimental data were collected and stored by Qpatch. […] The current detected in compound-free extracellular fluid for each cell served as its own control group, and the detection was repeated twice independently using at least two cells per concentration. […] For data analysis, the current after the action of each drug concentration and the current of the blank control were standardized ((Peak tail currentcompound)/(Peak tail currentvehicle)) [formula] , and then the inhibition rate corresponding to each drug concentration was calculated (1−(Peak tail currentcompound)/(Peak tail currentvehicle)) [formula] . […]

T1 sequence (P11712 whole entry): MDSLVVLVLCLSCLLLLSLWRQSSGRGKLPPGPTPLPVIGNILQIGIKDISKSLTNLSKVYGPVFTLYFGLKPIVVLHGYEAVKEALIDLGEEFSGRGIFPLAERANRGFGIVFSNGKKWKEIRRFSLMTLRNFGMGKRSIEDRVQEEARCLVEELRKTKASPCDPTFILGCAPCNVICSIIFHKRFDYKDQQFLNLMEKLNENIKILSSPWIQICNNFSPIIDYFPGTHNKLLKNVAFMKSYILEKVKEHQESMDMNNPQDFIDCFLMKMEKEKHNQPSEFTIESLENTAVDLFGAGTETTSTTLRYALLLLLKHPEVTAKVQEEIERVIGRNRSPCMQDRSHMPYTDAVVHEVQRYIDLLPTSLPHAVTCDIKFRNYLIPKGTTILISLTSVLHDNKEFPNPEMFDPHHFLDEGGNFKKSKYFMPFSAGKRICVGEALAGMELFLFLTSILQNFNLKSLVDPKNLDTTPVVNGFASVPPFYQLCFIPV

IC50 (CYP450 2C9; human liver microsomes, 2C9, read-out: IC50)	IC50 (CYP450 2D6; human liver microsomes, 2D6, read-out: IC50)	SMILES	IC50 (CYP450 2C9; human, microsomes, pH 7.4)	IC50 (CYP450 2D6; human, microsomes, pH 7.4)	Day 31 TGI (NCI-H838 cells; 10 mpk PO QD)	Day 31 TGI (NCI-H838 cells; 30 mpk PO QD)	Day 31 TGI (NCI-H838 cells; 100 mpk PO QD)	IC50 [1]
–	–	Cn1ncc2c(N)nc3cc(F)c(C(=O)N4CCOC[C@@H]4c4ccc5c(c4)OC(F)(F)O5)cc3c21 [Example I-7]	> 10 µM	> 10 µM	–	–	–	–
–	–	Cn1ncc2c(N)nc3cnc(C(=O)N4CCOC[C@@H]4c4ccc5c(c4)OC(F)(F)O5)cc3c21 [Example I-38]	–	–	75%	105%	107%	22 µM
> 10 µM	> 10 µM	Cn1ncc2c(N)nc3cc(F)c(C(=O)N(Cc4ccc5c(c4)OC(F)(F)O5)C4CC4)cc3c21 [Example I-16]	–	–	97%	–	–	–
